Where no end group is shown, it is not given here.
What was measured:
[1] = Hypotensive activity in anesthetized male Wistar rats; format: in vivo, rat; conditions: nembutal anesthesia
Method: Using male Wistar rats having a body weight of 350 g under nembutal anesthesia, the hypotensive activity was measured.

rat pituicytes = assay: Adenylate Cyclase Stimulating Test in Rat Pituicyte Culture; format: cell-based; conditions: Experiment 2, blank 1.35 ± 0.05
Excerpt: The amino acid sequence of sheep PACAP38 is believed to be identical to that of human PACAP38. […] The minimum effective amount was 10^-12 M, and it was shown that the activity increased with increasing concentration.

| Substance | Hypotensive activity (decrease from normal value) ([1]; dosage 0.3 n mole/kg) [mm Hg] | Hypotensive activity (decrease from normal value) ([1]; dosage 1.0 n mole/kg) [mm Hg] | Hypotensive activity (decrease from normal value) ([1]; dosage 3.0 n mole/kg) [mm Hg] | cAMP (M ± SEM) (rat pituicytes; 10^-7 M) [p mol/ml] | cAMP (M ± SEM) (rat pituicytes; 10^-8 M) [p mol/ml] | cAMP (M ± SEM) (rat pituicytes; 10^-9 M) [p mol/ml] | cAMP (M ± SEM) (rat pituicytes; 10^-10 M) [p mol/ml] | cAMP (M ± SEM) (rat pituicytes; 10^-11 M) [p mol/ml] | cAMP (M ± SEM) (rat pituicytes; 10^-12 M) [p mol/ml] |
| --- | --- | --- | --- | --- | --- | --- | --- | --- | --- |
| PACAP38 NH2 (HSDGIFTDSYSRYRKQMAVKKYLAAVLGKRYKQRVKNK-NH2; UniProt P18509 132-169, looked up) | 3.2 ± 1.9 | 17.4 ± 2.4 | 29.8 ± 3.6 |  |  |  |  |  |  |
| PACAP27 NH2 [Syn.27p-NH2] | 14.5 ± 3.1 | 51.9 ± 9.6 | 4.1 | 9.20 ± 0.20 | 9.20 ± 0.00 | 7.90 ± 0.30 | 4.00 ± 0.20 | 2.55 ± 0.15 | 2.05 ± 0.15 |
